One assay addresses PIK3CD (Human) (UniProt O00329). Nature of the assay: Assessment of PIK3CD Kinase Activity.
The target in a further assay is PIK3CB (Human) (UniProt P42338). Nature of the assay: Assessment of PIK3CB Kinase Activity.
Another assay has as its target PIK3CA (human) (UniProt P42336). The assay can be described thus: Assessment of PIK3CA Kinase Activity.
The target of another assay is PIK3CG (human) (UniProt P48736). Nature of the assay: Assessment of PIK3CG Kinase Activity.

From the Kinase Knowledgebase extract (Sharma et al. 2016) come the findings set out here.

Sequence of PIK3CD (Human) (O00329 whole entry, looked up): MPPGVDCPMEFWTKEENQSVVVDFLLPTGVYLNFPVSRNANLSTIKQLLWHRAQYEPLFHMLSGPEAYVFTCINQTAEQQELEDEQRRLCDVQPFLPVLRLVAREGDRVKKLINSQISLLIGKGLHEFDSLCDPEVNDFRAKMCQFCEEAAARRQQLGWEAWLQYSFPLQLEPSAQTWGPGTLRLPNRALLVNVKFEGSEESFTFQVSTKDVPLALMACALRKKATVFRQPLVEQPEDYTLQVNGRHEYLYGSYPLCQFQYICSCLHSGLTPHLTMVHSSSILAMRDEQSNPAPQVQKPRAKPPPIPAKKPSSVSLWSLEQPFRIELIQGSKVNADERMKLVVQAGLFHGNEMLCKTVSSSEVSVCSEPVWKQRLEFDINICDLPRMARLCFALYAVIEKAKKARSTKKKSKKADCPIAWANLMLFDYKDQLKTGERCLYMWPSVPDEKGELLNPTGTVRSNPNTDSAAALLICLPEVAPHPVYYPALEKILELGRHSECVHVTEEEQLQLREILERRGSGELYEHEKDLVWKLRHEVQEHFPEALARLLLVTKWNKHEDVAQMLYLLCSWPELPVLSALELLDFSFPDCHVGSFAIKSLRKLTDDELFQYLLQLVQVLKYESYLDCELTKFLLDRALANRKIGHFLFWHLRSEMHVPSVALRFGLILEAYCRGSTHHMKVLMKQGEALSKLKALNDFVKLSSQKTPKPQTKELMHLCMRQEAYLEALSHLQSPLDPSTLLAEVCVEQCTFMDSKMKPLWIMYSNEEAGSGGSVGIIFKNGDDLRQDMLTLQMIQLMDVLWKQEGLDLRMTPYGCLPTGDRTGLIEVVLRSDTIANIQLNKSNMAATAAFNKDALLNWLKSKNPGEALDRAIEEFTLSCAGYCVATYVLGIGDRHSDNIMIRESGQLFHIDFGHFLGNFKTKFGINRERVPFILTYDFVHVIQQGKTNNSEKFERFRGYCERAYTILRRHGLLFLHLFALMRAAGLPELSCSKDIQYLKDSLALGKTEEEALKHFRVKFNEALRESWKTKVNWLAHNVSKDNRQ
Sequence of PIK3CB (Human) (P42338 whole entry, looked up): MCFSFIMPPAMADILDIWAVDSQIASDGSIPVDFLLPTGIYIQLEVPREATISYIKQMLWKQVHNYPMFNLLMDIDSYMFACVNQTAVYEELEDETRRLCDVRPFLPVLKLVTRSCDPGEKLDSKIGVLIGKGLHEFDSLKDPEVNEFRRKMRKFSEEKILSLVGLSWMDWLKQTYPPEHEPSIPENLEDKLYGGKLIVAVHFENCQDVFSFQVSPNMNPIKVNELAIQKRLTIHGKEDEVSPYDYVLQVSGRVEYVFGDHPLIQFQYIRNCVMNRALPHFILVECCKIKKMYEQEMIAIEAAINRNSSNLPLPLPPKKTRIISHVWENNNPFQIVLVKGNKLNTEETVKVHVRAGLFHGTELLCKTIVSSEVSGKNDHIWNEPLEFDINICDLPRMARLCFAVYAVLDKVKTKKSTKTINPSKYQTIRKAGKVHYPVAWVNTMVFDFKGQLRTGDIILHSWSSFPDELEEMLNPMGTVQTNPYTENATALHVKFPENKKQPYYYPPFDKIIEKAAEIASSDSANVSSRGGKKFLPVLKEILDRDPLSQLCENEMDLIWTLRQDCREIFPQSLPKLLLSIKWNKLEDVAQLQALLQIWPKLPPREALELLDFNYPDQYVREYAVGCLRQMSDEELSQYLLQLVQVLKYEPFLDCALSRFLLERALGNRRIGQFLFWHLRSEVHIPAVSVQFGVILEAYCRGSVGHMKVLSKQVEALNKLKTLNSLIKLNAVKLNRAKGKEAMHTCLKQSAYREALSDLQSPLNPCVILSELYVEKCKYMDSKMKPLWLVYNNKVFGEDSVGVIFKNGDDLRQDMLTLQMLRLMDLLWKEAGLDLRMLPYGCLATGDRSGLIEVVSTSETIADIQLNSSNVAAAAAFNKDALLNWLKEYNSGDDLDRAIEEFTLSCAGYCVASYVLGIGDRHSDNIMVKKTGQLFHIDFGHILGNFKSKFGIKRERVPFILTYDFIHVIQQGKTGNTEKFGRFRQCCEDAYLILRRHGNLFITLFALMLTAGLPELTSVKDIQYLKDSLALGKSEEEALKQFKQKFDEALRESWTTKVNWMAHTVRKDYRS
Sequence of PIK3CA (human) (P42336 whole entry, looked up): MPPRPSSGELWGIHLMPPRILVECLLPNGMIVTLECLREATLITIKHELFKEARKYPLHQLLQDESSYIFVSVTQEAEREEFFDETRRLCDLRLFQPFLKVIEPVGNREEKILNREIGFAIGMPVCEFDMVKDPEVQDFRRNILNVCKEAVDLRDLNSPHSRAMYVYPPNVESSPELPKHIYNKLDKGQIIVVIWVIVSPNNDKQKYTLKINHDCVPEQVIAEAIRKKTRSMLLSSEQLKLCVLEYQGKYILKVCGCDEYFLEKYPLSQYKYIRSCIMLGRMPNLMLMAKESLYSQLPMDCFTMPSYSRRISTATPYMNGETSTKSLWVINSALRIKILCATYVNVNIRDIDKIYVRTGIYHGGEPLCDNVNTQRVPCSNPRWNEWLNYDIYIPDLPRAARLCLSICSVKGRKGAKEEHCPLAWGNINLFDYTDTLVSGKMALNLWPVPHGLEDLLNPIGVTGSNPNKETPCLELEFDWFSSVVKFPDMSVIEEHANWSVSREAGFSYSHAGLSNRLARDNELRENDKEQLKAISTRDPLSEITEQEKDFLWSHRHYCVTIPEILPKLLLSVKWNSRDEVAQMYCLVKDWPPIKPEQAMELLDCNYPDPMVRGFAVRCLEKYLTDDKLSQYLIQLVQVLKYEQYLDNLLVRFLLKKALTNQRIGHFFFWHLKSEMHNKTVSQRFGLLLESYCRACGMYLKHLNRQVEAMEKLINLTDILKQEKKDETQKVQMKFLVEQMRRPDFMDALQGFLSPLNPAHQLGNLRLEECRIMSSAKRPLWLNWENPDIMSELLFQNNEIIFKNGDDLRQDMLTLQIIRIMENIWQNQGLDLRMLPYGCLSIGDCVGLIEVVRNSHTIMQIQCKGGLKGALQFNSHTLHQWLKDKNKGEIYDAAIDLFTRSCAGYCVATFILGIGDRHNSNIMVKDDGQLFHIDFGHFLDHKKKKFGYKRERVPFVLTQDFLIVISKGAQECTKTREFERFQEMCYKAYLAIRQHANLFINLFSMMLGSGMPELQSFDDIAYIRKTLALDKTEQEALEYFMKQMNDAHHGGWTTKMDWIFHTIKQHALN
Sequence of PIK3CG (human) (P48736 whole entry, looked up): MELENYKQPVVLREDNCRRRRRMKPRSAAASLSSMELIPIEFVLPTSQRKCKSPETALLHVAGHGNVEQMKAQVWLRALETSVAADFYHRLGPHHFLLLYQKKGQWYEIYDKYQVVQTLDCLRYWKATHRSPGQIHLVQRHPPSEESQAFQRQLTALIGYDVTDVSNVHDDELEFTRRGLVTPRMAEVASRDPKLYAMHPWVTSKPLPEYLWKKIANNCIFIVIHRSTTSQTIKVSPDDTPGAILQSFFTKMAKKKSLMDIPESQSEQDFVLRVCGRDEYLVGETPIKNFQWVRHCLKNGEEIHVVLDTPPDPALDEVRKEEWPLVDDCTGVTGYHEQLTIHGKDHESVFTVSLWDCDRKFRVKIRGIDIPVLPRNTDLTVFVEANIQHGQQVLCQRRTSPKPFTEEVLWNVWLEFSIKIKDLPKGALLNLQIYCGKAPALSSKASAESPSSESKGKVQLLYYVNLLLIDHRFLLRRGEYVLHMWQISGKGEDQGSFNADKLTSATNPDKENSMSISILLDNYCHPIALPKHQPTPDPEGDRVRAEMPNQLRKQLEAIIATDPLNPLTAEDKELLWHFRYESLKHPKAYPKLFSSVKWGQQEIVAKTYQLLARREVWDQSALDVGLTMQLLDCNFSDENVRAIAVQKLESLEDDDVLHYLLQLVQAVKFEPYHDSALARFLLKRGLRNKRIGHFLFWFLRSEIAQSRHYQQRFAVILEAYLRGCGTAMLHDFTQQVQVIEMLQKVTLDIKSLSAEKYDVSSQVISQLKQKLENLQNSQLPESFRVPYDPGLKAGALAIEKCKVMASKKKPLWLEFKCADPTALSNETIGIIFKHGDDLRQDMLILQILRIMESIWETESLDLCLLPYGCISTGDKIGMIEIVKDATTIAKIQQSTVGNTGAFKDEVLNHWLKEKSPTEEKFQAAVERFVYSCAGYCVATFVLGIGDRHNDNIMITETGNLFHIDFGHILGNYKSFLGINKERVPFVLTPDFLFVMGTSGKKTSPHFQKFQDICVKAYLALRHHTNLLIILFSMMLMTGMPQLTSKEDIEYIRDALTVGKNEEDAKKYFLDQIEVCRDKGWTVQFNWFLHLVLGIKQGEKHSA

At PIK3CD (Human), `COCCCNC(=O)Nc1ccc(-c2nc3c(c(N4CCOC[C@@H]4C)n2)CN(C)C3)cc1` had an IC50 greater than 10 µM.

As to `C[C@H]1COCCN1c1nc(-c2ccc(NC(=O)NCCN(C)C)cc2)nc2c1CN(C)C2`, the IC50 at PIK3CB (Human), against PIK3CA (human) and at PIK3CD (Human) was 0.1 to 1 µM each time.

Take `COC(=O)N1Cc2nc(-c3ccc(NC(=O)NCCF)cc3F)nc(N3CCOCC3)c2C1`: the half-maximal inhibitory concentration (IC50) on PIK3CG (human), at PIK3CB (Human), against PIK3CA (human) and on PIK3CD (Human) was greater than 10 µM each time.

Take `C[C@H]1COCCN1c1nc(-c2ccc(NC(=O)NCCCO)cc2)nc2c1CN(C)C2`: the 50% inhibitory concentration (IC50) against PIK3CD (Human) was greater than 10 µM.

In turn, `C[C@H]1COCCN1c1nc(-c2ccc(NC(=O)NC3CCC3)cc2)nc2c1CN(C)C2` gave a concentration for half-maximal inhibition (IC50) against PIK3CD (Human) greater than 10 µM.

In general, IC50 refers to the concentration that inhibits the measured activity by half. A higher IC50 goes with lower potency.
